Measurements reported in patent US11510964B2, “Macrocyclic peptides to decrease c-Myc protein levels and reduce cancer cell growth” (University of Kansas, priority 2017, dated 2022).
Non-standard residues stand in square brackets, D forms with d. Residues, ends and D or L forms follow the SMILES beside them.

Columns and labels:
[1] = mice, after systemic administration; cited from earlier work
PC-3 cells = format: cell-based, human; details: 48 h, read-out: IC50, cell growth
Experimental: Human prostate cancer PC-3 cells were cultured and maintained in EMEM (ATCC), non-prostate HEK (human embryonic kidney) cells were cultured in DMEM, human prostate cancer DU145, LNCaP, 22Rv1 cells were cultured in RPMI 1640 (ATCC), and normal BPH-1 prostate cells and prostate cancer C4-2 cell line were cultured in RPMI 1640 (ATCC), all containing 10% fetal bovine serum (Atlanta Biologicals) and 1% penicillin/streptomycin (Invitrogen). Cells were grown at 37° C. in humidified air with 5% CO2 and passaged every fourth to fifth day following trypsinization with trypsin/EDTA (Invitrogen).^16
PC-3, LNCaP, DU 145, 22Rv1, C4-2, BPH-1, and HEK cells were grown to a density of 2000 cells/well in 96 well plates and treated with [D-Trp]CJ-15,208 or other peptides for 24-72 h in duplicate. Media containing [D-Trp]CJ-15,208 was changed every 24 h. The proliferation of treated cells was determined using the cell proliferation reagent WST-1 (Roche) per the manufacturer's instructions and compared to […] control cells in 1% DMSO in media. After treatment with compound 10 μL of the reagent was added to the well in 100 μL culture media, and the cells incubated at 37° C. for 30 min. The absorbance of the media in each well was measured at […] using a plate reader (BioTek). The percentage cell proliferation was normalized to vehicle treated control cells calculated as: (mean absorbance of sample/mean absorbance of control cells)×100.^38
Each experiment was performed in triplicate unless otherwise stated in the figure legend. GraphPad Prism 5 was used to determine IC50 values. Data represent the mean value+/−SEM. Compound vs. vehicle treated cells in the cell cycle phase and apoptosis experiments (FIGS. 5-8) were compared using the student's t-test, with a two-tailed, unpaired method, using the Prism software. The effects of compound vs. vehicle treatment on protein levels (FIG. 10) were evaluated by one-way ANOVA with Dunnett's test for multiple comparisons.

[2] = cited from earlier work
[3] = mice, dose of 60 mg/kg; cited from earlier work
[4] = tested on: c-Myc protein levels in PC-3 cells; assay: Western blot analysis of cellular c-Myc protein levels; format: cell-based, human
Experimental: Cells were seeded in 6 well plates at a density of 1×10^5 cells/well and grown to 75% confluence. Cells were treated with [D-Trp]CJ-15,208 at the indicated concentrations. Cells were then harvested as described above, and the cell pellets lysed in RIPA buffer consisting of 10 mM Tris HCl, pH 8.0, 150 mM NaCl, 1 mM EDTA, 1% Triton-X-100, 0.1% SDS, 1% sodium deoxycholate, and a protease inhibitor cocktail #P8340 (Sigma). Cell lysates were centrifuged at 13×1000 rpm for 15 min and the supernatants collected. The total protein concentration was measured in cell lysates using the standard Bradford assay. SDS gel electrophoresis was performed using 4-20% polyacrylamide gel (BioRad). Western blot analysis was performed using the following antibodies: i) c-Myc #5605 (rabbit monoclonal, 1:2000 dilution, (Cell Signaling Technologies)); actin #A2228 (mouse monoclonal, 1:5000 dilution (Sigma)), PP2A #610555 (mouse monoclonal 1:5000 dilution, BD Biosciences), p-PP2A #1155-1 (rabbit polyclonal, 1:5000 dilution (Epitomics)), Erk #9107 (mouse monoclonal, 1:2000 dilution (Cell Signaling Technologies) and p-Erk #4376 (rabbit monoclonal, 1:2000 (Cell Signaling Technologies)); Akt #2920 (mouse monoclonal, 1:2000 dilution (Cell Signaling Technologies)), p-Akt #4056 (rabbit monoclonal, 1:2000 (Cell Signaling Technologies)). The secondary antibodies, goat-anti-mouse #116-035-003 and goat-anti-rabbit #111-035-003, were obtained from Jackson ImmunoResearch Laboratory. Signal densities of the protein bands were determined using ImageJ software (NIH) and normalized to the internal loading control (actin).

## O=C1N[C@@H](Cc2ccccc2)C(=O)N2CCC[C@@H]2C(=O)N[C@@H](Cc2ccccc2)C(=O)N[C@H]1Cc1c[nH]c2ccccc12 [CJ-15,208, cyclo[Phe-D-Pro-Phe-Trp]] (cyclo(FWF[dP]))
[1]
  blood-brain barrier penetration: appear to penetrate the blood-brain barrier
PC-3 cells
  IC50: 10.1 ± 0.9 µM
[2]
  activity after oral administration: active after oral administration
[3]
  toxicity: no evidence of toxicity
[4]; 50 μM (FIG. 1E lanes 4 and 5)
  decrease of cellular c-Myc protein levels: 5 fold
[4]; PC-3 cells, 10 μM, 48 h
  reduction of c-Myc protein levels: approximately 50%

## C=CCN1CC[C@]23c4c5ccc(O)c4O[C@H]2C(=O)CC[C@@]3(O)[C@H]1C5 [naloxone, reference compound]
[4]; PC-3 cells, 10 μM naloxone with 10 μM [D-Trp]CJ-15,208 (FIG. 1F lane 4 vs. lane 2)
  effect on the decrease in c-Myc protein levels caused by [D-Trp]CJ-15,208: did not alter the decrease
[4]; PC-3 cells, 10 μM, 48 h (FIG. 1F lane 3)
  effect on c-Myc protein levels: no effect

## CC[C@H](C)[C@@H]1NC(=O)[C@H](CCCNC(=N)N)NC(=O)[C@@H](NC(=O)[C@H](Cc2ccccc2)NC(=O)CNC(=O)CNC(=O)[C@H](Cc2ccc(O)cc2)NCc2ccccc2)CC(=O)NC[C@@H](C(=O)N[C@@H](CCCNC(=N)N)C(=O)N2CCC[C@H]2C(=O)N[C@@H](CCCCN)C(N)=O)NC1=O [zyklophin, reference compound]
[4]; 10 μM (FIG. 1E lane 3)
  effect on cellular c-Myc protein levels: not decreased

## dynorphin A-(1-13) (YGGFLRRIRPKP) [reference compound]
[4]; 1 μM (FIG. 1E lane 2)
  effect on cellular c-Myc protein levels: not decreased
